Measurements taken from patent US7282344B2, “Cation conducting GABAA receptors and their use” (Neurosearch A/S, priority 2001, dated 2007).

Molecular target: T1, GABAA receptor α2 β3 γ2 (wt) (Homo sapiens, UniProt P18507+P28472+P47869)
T1 construct: expressed in transfected cells; host or cells: CHO-K1 (ATCC No. CCL61)
Test: [^3H]-Muscimol binding, wild-type receptor
Conditions: wt α2 β3 γ2, membranes from CHO-K1 cells
Method: Binding studies were performed using standard methods. Membranes were prepared from CHO-K1 cells expressing recombinant GABAAR subunits. The cells were washed in PBS (Life Technologies), trypsinized, washed twice in tris-citrate buffer (50 mM, pH 7.1) and centrifuged for 10 minutes at 5,000 g.
Membranes were resuspended in membrane wash buffer [20 mM KH2PO4K2HPO4, pH 7.5, 50 mM KCl, 0.025% (w/v) NaN3, and various protease inhibitors (1 mM EDTA, 2 mM benzamidine chloride, 0.1 mM benzethonium chloride, 50 U/ml bacitracin, 0.3 mM phenylmethylsulfonyl fluoride, 10 mg/I ovomucoid trypsin inhibitor, 10 mg/l soybean trypsin inhibitor)] and centrifuged for 30 minutes at 177,000 g and 4° C. The pellet was resuspended in binding assay buffer (20 mM KH2PO4/K2HPO4, pH 7.5 and 100 mM KCl) to a protein concentration of 1 mg/ml and homogenized just before use. Binding was performed with 1, 3, 10, 30, 100 or 300 nM of [^3H]-muscimol (20 Ci/mmol, Dupont-New England Nuclear) in triplicate in a final volume of 250 μl containing 200 μg of protein, and non-specific binding was determined in the presence of 1 mM GABA (Sigma). Samples were incubated at 4° C. for 30 minutes and labelled membranes were harvested on a Brandel cell harvester using GF/B filters (Whatman). The filters were washed with 3×4 ml binding assay buffer and the amount of radioactivity was determined by liquid scintillation counting. […]

T1 sequence (P47869 29-451): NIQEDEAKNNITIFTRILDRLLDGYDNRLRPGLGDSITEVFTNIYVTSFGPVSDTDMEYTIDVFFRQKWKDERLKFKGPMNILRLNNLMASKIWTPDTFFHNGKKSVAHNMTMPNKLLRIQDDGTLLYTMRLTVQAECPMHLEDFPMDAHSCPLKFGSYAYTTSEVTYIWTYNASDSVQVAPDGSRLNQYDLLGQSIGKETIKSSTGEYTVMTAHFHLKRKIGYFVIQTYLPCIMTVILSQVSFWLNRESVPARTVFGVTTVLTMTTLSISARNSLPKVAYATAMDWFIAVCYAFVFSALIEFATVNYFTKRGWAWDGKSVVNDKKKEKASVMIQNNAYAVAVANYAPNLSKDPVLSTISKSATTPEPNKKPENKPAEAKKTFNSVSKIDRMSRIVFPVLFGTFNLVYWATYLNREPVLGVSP
T1 sequence (P28472 26-473): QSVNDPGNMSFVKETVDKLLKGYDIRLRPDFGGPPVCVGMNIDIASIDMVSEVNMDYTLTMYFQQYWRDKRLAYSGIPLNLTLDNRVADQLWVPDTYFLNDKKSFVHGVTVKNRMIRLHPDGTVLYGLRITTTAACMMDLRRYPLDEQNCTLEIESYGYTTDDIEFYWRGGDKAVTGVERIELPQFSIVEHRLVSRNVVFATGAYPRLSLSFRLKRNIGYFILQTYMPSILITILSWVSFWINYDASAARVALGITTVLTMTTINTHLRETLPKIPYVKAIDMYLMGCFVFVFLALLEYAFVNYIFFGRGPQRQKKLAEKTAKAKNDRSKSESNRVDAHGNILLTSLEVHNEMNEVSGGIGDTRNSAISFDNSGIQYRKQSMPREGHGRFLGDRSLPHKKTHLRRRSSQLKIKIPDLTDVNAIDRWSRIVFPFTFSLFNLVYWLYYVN
T1 sequence (P18507 40-475): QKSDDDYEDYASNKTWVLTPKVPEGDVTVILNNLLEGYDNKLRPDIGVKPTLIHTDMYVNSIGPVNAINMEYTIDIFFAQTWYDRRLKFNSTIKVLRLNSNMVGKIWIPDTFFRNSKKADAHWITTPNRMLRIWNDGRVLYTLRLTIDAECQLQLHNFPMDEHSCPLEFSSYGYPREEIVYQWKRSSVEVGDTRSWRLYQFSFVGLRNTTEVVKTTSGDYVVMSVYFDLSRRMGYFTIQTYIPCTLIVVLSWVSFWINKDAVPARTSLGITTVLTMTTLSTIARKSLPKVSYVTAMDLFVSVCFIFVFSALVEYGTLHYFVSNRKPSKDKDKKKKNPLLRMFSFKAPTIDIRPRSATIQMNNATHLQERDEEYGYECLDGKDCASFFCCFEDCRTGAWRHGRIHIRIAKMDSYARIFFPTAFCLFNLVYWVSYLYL

## NCc1cc(=O)[nH]o1 [[^3H] Muscimol, Muscimol]
  Kd: 0.0547 ± 0.0147 µM
